{"source": "patent US11285134B2", "about": "“Presbyopia treatments” (Allergan, Inc., priority 2018, dated 2022)", "origin": "cited, not measured here", "system": "patients with glaucoma", "conditions": "1-week treatment", "note": "Like-named read-outs stand apart in the source and are kept apart here."}
{"smiles": "CC[C@@H]1C(=O)OC[C@@H]1Cc1cncn1C", "note": "[pilocarpine]", "values": [{"measurement": "mean percent fall in IOP from baseline", "setting": "1% dose strength", "value": 17.5, "unit": "%"}, {"measurement": "mean percent fall in IOP from baseline", "setting": "4% dose strength", "value": 26.8, "unit": "%"}, {"measurement": "mean percent fall in IOP from baseline", "setting": "8% dose strength", "value": 29.1, "unit": "%"}]}
